Drawing on patent publication US10752612B2, “PLK4 inhibitors” (LUDWIG INSTITUTE FOR CANCER RESEARCH LTD, priority 2015, dated 2020), this text covers IC50 for 68 molecules.

The experiment deals with T1, human Plk4 kinase domain (aa 2-275) (Homo sapiens, UniProt O00444).
T1 construct: purified 6×His-tagged human Plk4 kinase domain (aa 2-275); 6xHis; made in house; host or cells: E. coli
T1 sequence (O00444 2-275): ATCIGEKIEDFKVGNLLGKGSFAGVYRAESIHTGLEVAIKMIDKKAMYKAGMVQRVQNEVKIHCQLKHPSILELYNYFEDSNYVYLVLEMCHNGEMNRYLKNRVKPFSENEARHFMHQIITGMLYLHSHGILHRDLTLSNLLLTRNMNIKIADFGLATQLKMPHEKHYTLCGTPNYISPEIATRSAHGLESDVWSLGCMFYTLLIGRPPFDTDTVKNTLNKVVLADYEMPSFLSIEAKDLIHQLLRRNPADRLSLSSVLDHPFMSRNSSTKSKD
Description: Plk4 kinase assay (ADP-Glo). Type of experiment: biochemical. Particulars: Table 1. The protocol:
Kinase assays. […] The Plk4 concentration in the final reaction was 2.5-10 nM with a final pH of 8.0. […] Reactions were allowed to proceed for 4-16 hours at 25° C. Detection was performed using ADP-Glo reagent (Promega), following manufacturer's instructions. Luminescence was measured on an Infinite M1000 plate reader (Tecan). Data were fit using Prism (GraphPad) and Kis were calculated from IC50 data using the Cheng and Prusoff equation (37) or the Copeland formalism for tight-binding inhibitors (38).

The term IC50 denotes the point on the concentration scale where inhibition reaches its midpoint. High values mean a need for much substance, low ones inhibition by little substance. Turning to `COc1c(Nc2cc(C)[nH]n2)nc(Sc2ccc(S(=O)(=O)Cc3ccccc3)cc2)nc1N1CCN(C2CCN(Cc3ccccc3)CC2)CC1`, the IC50 is < 1000 nM.
On to `COc1c(Nc2cc(C)[nH]n2)nc(Sc2ccc(S(=O)(=O)C(F)c3cccc([N+](=O)[O-])c3F)cc2F)nc1N1CCOC[C@@H]1CO` (some centres unmarked), for which the IC50 was < 1000 nM.
As to `CCOc1c(Nc2cc(C)[nH]n2)nc(Sc2ccc(NC(=O)C3CC3)cc2)nc1N(CC)CC` [drawing 123], the IC50 was < 1000 nM.
The result for `CCCOc1c(Nc2cc(C)[nH]n2)nc(Sc2ccc(NC(=O)C3CC3)cc2)nc1N(CC)CC` reads 100 to 1000 nM.
Take `COc1c(Nc2cc(C)[nH]n2)nc(Sc2ccc(NC(C)=O)cc2)nc1C1=CCN(C)CC1`: the IC50 is < 1000 nM.
Then `COCC(=O)N1CCN(c2nc(Sc3ccccc3)nc(Nc3cc(C)[nH]n3)c2C)CC1`, with < 1000 nM; and `COc1c(Nc2cc(C)[nH]n2)nc(Sc2ccc(NC(C)=O)cc2)nc1N1CCN(CC(N)=O)CC1`, with < 1000 nM; and `COc1c(Nc2c[nH]c(C)c2)nc(Sc2ccc(NC(C)=O)cc2)nc1N1CCC(O)C1` (centres unmarked), with < 1000 nM.
On to `COc1c(Nc2cc(C)[nH]n2)nc(Sc2ccc(NC(C)=O)cc2)nc1N1CC2CCC(C1)N2CCN(C)C`, for which the IC50 is < 1000 nM.
Turning to `COc1c(Nc2cc(C)[nH]n2)nc(Sc2ccc(NC(C)=O)cc2)nc1N1CCOCC1`, the half-inhibitory concentration (IC50) is < 1000 nM.
The result for `COCCN1CCN(c2nc(Sc3ccc(NC(=O)C4CCCC4)cc3)nc(Nc3cc(C)[nH]n3)c2OC)CC1` reads < 1000 nM; that for `COc1c(Nc2cc(C)[nH]n2)nc(Sc2ccc(S(=O)(=O)C(C)(C)c3cccc([N+](=O)[O-])c3F)cc2F)nc1N1CCOC[C@@H]1CO`, < 1000 nM.
`CCOc1c(Nc2cc(C)[nH]n2)nc(Sc2ccc(NC(=O)C3CCCC3)cc2)nc1N1CCN(C(=O)CCOC)CC1` gave an IC50 of 100 to 1000 nM.
With `CCN(C)c1nc(Sc2ccc(NC(=O)C3CCCC3)cc2)nc(Nc2cc(C)[nH]n2)c1C`, the IC50 is < 1000 nM.
Consider `CC(=O)Nc1ccc(Sc2nc(Nc3cc(C)[nH]n3)c(C)c(C3CCN(CCN(C)C)CC3)n2)cc1`, for which the concentration for half-maximal inhibition (IC50) is < 1000 nM.
Take `COc1c(Nc2cc(C)[nH]n2)nc(Sc2ccc(S(=O)(=O)Cc3ccccc3N(C)C)cc2)nc1N1CCN(CCN(C)C)CC1`: the IC50 is < 1000 nM.
In turn, `COc1c(Nc2cc(C)[nH]n2)nc(Sc2ccc(NC(=O)C3CC3)cc2)nc1N(C)CCN(C)C` registered an IC50 of 100 to 1000 nM.
With `COc1c(Nc2cc(C)[nH]n2)nc(Sc2ccc(S(=O)(=O)Cc3ccccc3)cc2Cl)nc1N1CCN(CCN(C)C)CC1`, the IC50 is < 1000 nM.
As to `COc1c(Nc2cc(C)[nH]n2)nc(Sc2ccc(N)cc2)nc1N1CCN(CCN(C)C)CC1`, the half-maximal inhibitory concentration (IC50) fell in the range of 100 to 1000 nM.
For `COc1c(Nc2cc(C)[nH]n2)nc(Sc2ccc(NC(=O)C3CCCC3)cc2)nc1N1CCN(C(C)=O)CC1`, the IC50 was < 1000 nM.
For `COc1c(Nc2cc(C)[nH]n2)nc(Sc2ccc(NC(C)=O)cc2)nc1N1CCN(CC(=O)N(C)C)CC1`, the concentration for half-maximal inhibition (IC50) was < 1000 nM.
Turning to `COc1c(Nc2cc(C)[nH]n2)nc(Sc2ccc(NC(C)=O)cc2)nc1N1C2CCC1CC(O)C2` (centres unmarked), the IC50 is < 1000 nM.
As for `CCOc1c(Nc2cc(C)[nH]n2)nc(SC)nc1N1CCN(C)CC1`, the IC50 lay within 100 to 1000 nM.
Regarding `COc1c(Nc2cc(C)[nH]n2)nc(Sc2ccc(NC(C)=O)cc2)nc1N1CCCCC1C` (centres unmarked), the half-inhibitory concentration (IC50) fell in the range of 100 to 1000 nM.
In the case of `COc1c(Nc2cc(C)[nH]n2)nc(Sc2ccc(NC(C)=O)cc2)nc1N(C)C(C)C`, the half-inhibitory concentration (IC50) is < 1000 nM.
For the molecule `COCCNc1nc(Sc2ccc(NC(C)=O)cc2)nc(Nc2cc(C)[nH]n2)c1C`, the half-maximal inhibitory concentration (IC50) was < 1000 nM.
As to `COc1c(Nc2cc(C)[nH]n2)nc(Sc2ccc(S(=O)(=O)Cc3cccc(C#N)c3F)cc2F)nc1N1CCCCC1`, the IC50 was < 1000 nM.
Take `Cc1cc(Nc2nc(Sc3ccc(NC(=O)C4CCCC4)cc3)nc(N3CCCCC3)c2C)n[nH]1`: the IC50 is < 1000 nM.
Molecule `CSc1c(Nc2cc(C)[nH]n2)nc(Sc2ccc(NC(=O)C3CC3)cc2)nc1N1CCN(C)CC1` came in with an IC50 of 100 to 1000 nM.
`COc1c(Nc2cc(C)[nH]n2)nc(Sc2ccc(S(=O)(=O)C(C)(C)c3cccc([N+](=O)[O-])c3F)cc2F)nc1N1CCOCC1`: the 50% inhibitory concentration (IC50) is < 1000 nM.
As for `CCOc1c(Nc2cc(C)[nH]n2)nc(Sc2ccc(NC(=O)C3CC3)cc2)nc1N(C)C` [drawing 125], the IC50 is < 1000 nM.
For the molecule `CCC(=O)N1CCN(c2nc(Sc3ccc(NC(C)=O)cc3)nc(Nc3cc(C)[nH]n3)c2OC)CC1`, the IC50 was < 1000 nM.
Take `CC(=O)Nc1ccc(Sc2nc(Nc3cc(C)[nH]n3)c(C)c(N3CCC(N(C)C)CC3)n2)cc1`: the IC50 is < 1000 nM.
Turning to `COc1c(Nc2cc(C)[nH]n2)nc(Sc2ccc(S(=O)(=O)Cc3ccncc3)cc2)nc1N1CCN(CCN(C)C)CC1`, the half-maximal inhibitory concentration (IC50) was < 1000 nM.
For `COc1c(Nc2cc(C)[nH]n2)nc(Sc2ccc(S(=O)(=O)Cc3cccc([N+](=O)[O-])c3F)cc2F)nc1N1CCOC[C@H]1C`, the half-maximal inhibitory concentration (IC50) was < 1000 nM.
For `COc1c(Nc2cc(C)[nH]n2)nc(Sc2ccc(NC(C)=O)cc2)nc1N1CCN(CCN2CCOCC2)CC1`, the IC50 was < 1000 nM.
With `COc1c(Nc2cc(C)[nH]n2)nc(Sc2ccc(S(=O)(=O)C(F)c3cccc([N+](=O)[O-])c3F)cc2F)nc1N1CCN(CCN(C)C)CC1` (centres unmarked), the IC50 was < 1000 nM.
In the case of `CNC(=O)Nc1ccc(Sc2nc(Nc3cc(C)[nH]n3)c(C)c(N3CCN(C(=O)COC)CC3)n2)cc1`, the IC50 is < 1000 nM.
Turning to `COc1c(Nc2cc(C)[nH]n2)nc(Sc2ccc(NC(=O)c3cccc([N+](=O)[O-])c3F)cc2F)nc1N1CCOCC1`, the half-inhibitory concentration (IC50) lay in the range of 100 to 1000 nM.
Regarding `COc1c(Nc2cc(C)[nH]n2)nc(Sc2ccc(S(=O)(=O)Cc3cccs3)cc2)nc1N1CCN(CCN(C)C)CC1`, the IC50 is < 1000 nM.
`COc1c(Nc2cc(C)[nH]n2)nc(Sc2ccc(S(=O)(=O)C(C)(C)c3cccnc3)cc2)nc1N1CCN(CCN(C)C)CC1`: the IC50 was < 1000 nM.
The result for `COCCC(=O)N1CCN(c2nc(Sc3ccc(NC(=O)C4CC4)cc3)nc(Nc3cc(C)[nH]n3)c2OC)CC1` reads < 1000 nM; that for `CCS(=O)(=O)c1ccc(Sc2nc(Nc3cc(C)[nH]n3)c(OC)c(N3CCNCC3)n2)cc1`, < 1000 nM.
Regarding `CCc1cc(Nc2nc(SC)nc(N3CCN(CCN(C)C)CC3)c2OC)n[nH]1`, the IC50 is < 1000 nM.
On to `COc1c(Nc2cc(C)[nH]n2)nc(Sc2ccc(NC(=O)C3CC3)cc2)nc1N1CCCCC1`, for which the IC50 was < 1000 nM.
The result for `Cc1cc(Nc2nc(Sc3ccc(N)cc3)nc(N(C)C(C)C)c2C)n[nH]1` reads < 1000 nM; that for `CCN1CCN(c2nc(Sc3ccc(NC(C)=O)cc3)nc(Nc3cc(C)[nH]n3)c2OC)CC1`, < 1000 nM; that for `COc1c(Nc2cc(C)[nH]n2)nc(Sc2ccc(S(=O)(=O)C(C)(C)c3c(F)c(F)cc(F)c3F)cc2F)nc1N1CCC(CC(=O)N(C)C)CC1`, < 1000 nM.
`CCOc1c(Nc2cc(C)[nH]n2)nc(Sc2ccc(NC(=O)C3CCCC3)cc2)nc1N1CCCCC1` returned a half-maximal inhibitory concentration (IC50) of 100 to 1000 nM.
With `CCOc1c(Nc2cc(C)[nH]n2)nc(Sc2ccc(NC(=O)C3CCCC3)cc2)nc1N1CCN(CC2CC2)CC1`, the IC50 fell in the range of 100 to 1000 nM.
In the case of `CCOc1c(Nc2cc(C)[nH]n2)nc(Sc2ccc(NC(=O)C3CC3)cc2)nc1N(C)CC` [drawing 124], the half-maximal inhibitory concentration (IC50) was < 1000 nM.
Take `COc1c(Nc2cc(C)[nH]n2)nc(Sc2ccc(NC(C)=O)cc2)nc1N1CCN(C(=O)N(C)C)CC1`: the IC50 was < 1000 nM.
The molecule `Cc1cc(Nc2nc(Sc3ccc(NC(=O)C4CC4)cc3)nc(N3CCN(C)CC3)c2Cl)n[nH]1` yielded a half-maximal inhibitory concentration (IC50) of 100 to 1000 nM.
`Cc1cc(Nc2cc(N3CCN(CCN(C)C)CC3)nc(Sc3ccc(S(=O)(=O)Cc4ccccc4)cc3)n2)n[nH]1`: the IC50 is < 1000 nM.
Then `COc1c(Nc2cc(C)[nH]n2)nc(Sc2ccc(S(=O)(=O)Cc3ccccc3)cc2)nc1N1CCN(CCN2CCC2)CC1`, with < 1000 nM.
As for `COc1c(Nc2cc(C)[nH]n2)nc(Sc2ccc(S(=O)(=O)Cc3ccccc3)cc2)nc1N1CCC(CCN(C)C)CC1`, the IC50 is < 1000 nM.
As for `CC(=O)Nc1ccc(Sc2nc(Nc3cc(C)[nH]n3)c(C)c(N(CCO)C(C)C)n2)cc1`, the IC50 was < 1000 nM.
Turning to `Cc1cc(Cc2nc(Sc3ccc(NC(=O)C4CCCC4)cc3)nc(N3CCN(CCN(C)C)CC3)c2C)n[nH]1`, the IC50 was < 1000 nM.
In the case of `CC(=O)Nc1ccc(Sc2nc(Nc3cc(C)[nH]n3)c(C)c(N3CCCCC3)n2)cc1`, the IC50 was < 1000 nM.
As for `Cc1cc(Nc2nc(Sc3ccc(NC(=O)C4CC4)cc3)nc(NC(C)C)c2C)n[nH]1`, the 50% inhibitory concentration (IC50) was < 1000 nM.
For `CNC(=O)Nc1ccc(Sc2nc(Nc3cc(C)[nH]n3)c(C)c(N3CCC(O)CC3)n2)cc1`, the IC50 is < 1000 nM.
On to `CNc1nc(Sc2ccc(NC(=O)C3CC3)cc2)nc(Nc2cc(C)[nH]n2)c1C`, for which the IC50 is < 1000 nM.
For `Cc1cc(Nc2nc(Sc3ccc(NC(=O)C4CC4)cc3)nc(N(C)CCN(C)C)c2C)n[nH]1`, the IC50 is < 1000 nM.
Consider `Cc1cc(Nc2nc(Sc3ccc(NC(=O)C4CC4)cc3)nc(N(C)C)c2C)n[nH]1`, for which the IC50 is < 1000 nM.
Take `COc1c(Nc2cc(C)[nH]n2)nc(Sc2ccc(S(=O)(=O)Cc3cccc([N+](=O)[O-])c3O)cc2)nc1N1CCN(CCN(C)C)CC1`: the IC50 is < 1000 nM.
In the case of `COc1c(Nc2cc(C)[nH]n2)nc(Sc2ccc(S(=O)(=O)Cc3cccc(C#N)c3F)cc2F)nc1N1CCN(CCN(C)C)CC1`, the IC50 is < 1000 nM.
As to `Cc1cc(Nc2nc(Sc3ccc(NC(=O)C4CC4)cc3)nc(C)c2C)n[nH]1`, the IC50 is < 1000 nM.
As for `COc1c(Nc2cc(C)[nH]n2)nc(Sc2ccc(NC(C)=O)cc2)nc1C1=CCN(CC(=O)N(C)C)CC1`, the IC50 was < 1000 nM.
